This is an account of results in PubChem BioAssay (NCI).

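1) Cells in 96-well plates. 2) Compound, 48 h, 5 concentrations. 3) Linear interpolation between surrounding doses. 4) Unreached endpoint = highest concentration. TGI denotes the concentration required for complete inhibition of growth.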

Among the test systems are DLD-1 colon; DMS 273 small cell lung; HOP-18 NSCLC; LXFL 529 NSCLC; SNB-78 CNS; XF 498 CNS; RXF-631 renal; P388 leukemia; P388/ADR leukemia; SN12K1 renal.
Assay in all cases: NCI tumour cell line growth inhibition, 48 h

`COc1ccc2c(c1)c(=O)c1c(NCCCN(C)C)ccc3ncn2c31`: the TGI in the experiment on DLD-1 colon stood at 17.8 µM; with DMS 273 small cell lung it was 15.5 µM; in the experiment with HOP-18 NSCLC, 28.6 µM; in the experiment with LXFL 529 NSCLC it was 19.8 µM; in the experiment on SNB-78 CNS it was 23.5 µM; in the experiment with XF 498 CNS it was 18.9 µM.
For `COc1ccc2c(c1)C=C(C(C)(C)C)NS2(=O)=O`, the TGI in the experiment on DLD-1 colon, in the experiment with DMS 273 small cell lung, in the experiment on HOP-18 NSCLC, with LXFL 529 NSCLC, with RXF-631 renal and with SNB-78 CNS was greater than 100 µM throughout.
Turning to `CC(c1ccccc1)C(O)S(=O)(=O)O` (stereo unspecified), the TGI with DMS 273 small cell lung, in the experiment on HOP-18 NSCLC, with LXFL 529 NSCLC, in the experiment with RXF-631 renal, in the experiment with SNB-78 CNS and with XF 498 CNS was greater than 100 µM each time.
Consider `CCOC(=O)/C=C/c1c[nH]c(=O)[nH]c1=O`, for which the TGI with DLD-1 colon, in the experiment on DMS 273 small cell lung, with HOP-18 NSCLC, in the experiment with P388 leukemia, in the experiment on P388/ADR leukemia and in the experiment on SN12K1 renal was greater than 75 µM throughout. Also, the TGI with SNB-78 CNS and with XF 498 CNS was greater than 75 µM throughout.
For `COc1cc(OC)cc(C(=O)Cc2c(C(=O)c3ccccc3)c3ccccc3n2C(=O)c2ccccc2)c1`, the TGI in the experiment with DLD-1 colon was greater than 100 µM; in the experiment on DMS 273 small cell lung, greater than 100 µM; with LXFL 529 NSCLC, greater than 100 µM; with SNB-78 CNS it was greater than 100 µM; with XF 498 CNS it was 73.6 µM.
Regarding `CCOC(=O)C1=C(C)N(C2OC(COC(C)=O)C(OC(C)=O)C(OC(C)=O)C2OC(C)=O)C(=O)NC1c1ccccc1` (stereo unspecified), the TGI with DLD-1 colon, in the experiment on HOP-18 NSCLC, with LXFL 529 NSCLC, in the experiment with RXF-631 renal and with SNB-78 CNS was greater than 100 µM each time.
